# Reference: patent US10577363B2, “Substituted piperidine compounds” (EPIZYME, INC., priority 2014, dated 2020)
# Target: SMYD3 (Homo sapiens (Human), UniProt Q9H7B4)
# Experiment: SMYD3 biochemical assay (SPA, 3H-SAM methylation of MEKK2 protein substrate)
# Conditions: read-out: SMYD3 Biochem IC50 (μM)*
# Description: S-adenosylmethionine (SAM), S-adenosylhomocysteine (SAH), Tris, Tween20, dimethylsulfoxide (DMSO), bovine skin gelatin (BSG), and Tris(2-carboxyethyl)phosphine hydrochloride solution (TCEP) were purchased from Sigma-Aldrich at the highest level of purity possible. ^3H-SAM was purchase from American Radiolabeled Chemicals with a specific activity of 80 Ci/mmol. 384-well opaque white OptiPlates and SPA beads (Perkin Elmer, catalog # RPNQ0013) were purchased from PerkinElmer.
# N-terminally GST-tagged MEKK2 (MAP3K2) protein corresponding to reference sequence AAF63496.3 was purchased from Life Technologies (catalog # PV4010). This protein was expressed in High Five insect cells and purified to >85% purity. Protein identity was confirmed by MS/MS analysis after proteolytic digestion. The protein sequence used was:
# Full-length human SMYD3 isoform 1 (BAB86333) was inserted into a modified pET21b plasmid containing a His6 tag and TEV and SUMO cleavage sites.
# E. coli (BL21 codonplus RIL strain, Stratagene) were transformed with plasmid pEPZ553 by mixing competent cells and plasmid DNA and incubating on ice for 30 minutes followed by heat shock at 42° C. for 1 minute and cooling on ice for 2 minutes. Transformed cells were grown and selected on LB agar with 100 μg/mL ampicillin and 17 μg/mL chloramphenicol at 37° C. overnight. A single clone was used to inoculate 200 mL of LB medium with 100 μg/mL ampicillin and 17 μg/mL chloramphenicol and incubated at 37° C. on an orbital shaker at 180 rpm. Once in log growth, the culture was diluted 1:100 into 2 L of LB medium and grown until OD600 was about 0.3 after which the culture was incubated at 15° C. and 160 rpm. Once OD600 reached about 0.4, IPTG was added to a final concentration of 0.1 mM and the cells were grown overnight at 15° C. and 160 rpm. Cells were harvested by centrifugation at 8000 rpm, for 4 minutes at 4° C. and stored at −80° C. for purification.
# The column was washed with Buffer B (Buffer A plus 20 mM imidazole) and His-tagged SMYD3 was eluted with Buffer C (Buffer A plus 300 mM imidazole). The His tag, TEV and SUMO cleavage sites were removed generating native SMYD3 by addition of ULP1 protein at a ratio of 1:200 (ULP1:SMYD3). Imidazole was removed by dialysis overnight in Buffer A. The dialyzed solution was applied to a second Nickel column and the native SMYD3 protein was collected from the column flow-through. The flow-through was dialyzed in Buffer D (25 mM Tris, 5% glycerol, 5 mM β-mercaptoethanol, 50 mM NaCl, pH7.8) and ULP1 was removed using a Q sepharose fast flow column.
# General Procedure for SMYD3 Enzyme Assays on MEKK2 Protein Substrate
# The assays were all performed in a buffer consisting of 25 mM Tris-Cl pH 8.0, 1 mM TCEP, 0.005% BSG, and 0.005% Tween 20, prepared on the day of use. […] DMSO (1 ul) was added to Columns 11, 12, 23, 24, rows A-H for the maximum signal control and 1 ul of SAH, a known product and inhibitor of SMYD3, was added to columns 11, 12, 23, 24, rows I-P for the minimum signal control. A cocktail (40 ul) containing the SMYD3 enzyme was added by Multidrop Combi (Thermo-Fisher). The compounds were allowed to incubate with SMYD3 for 30 min at room temperature, then a cocktail (10 ul) containing SAM and MEKK2 was added to initiate the reaction (final volume=51 ul). […] The assays were stopped by the addition of non-radiolabeled SAM (10 ul) to a final concentration of 100 uM, which dilutes the ^3H-SAM to a level where its incorporation into MEKK2 is no longer detectable. Radiolabeled MEKK2 was detected using a scintillation proximity assay (SPA). 10 uL of a 10 mg/mL solution of SPA beads in 0.5 M citric acid was added and the plates centrifuged at 600 rpm for 1 min to precipitate the radiolabeled MEKK2 onto the SPA beads. The plates were then read in a PerkinElmer TopCount plate reader to measure the quantity of ^3H-labeled MEKK2 as disintegrations per minute (dpm) or alternatively, referred to as counts per minute (cpm).
row,SMILES,IC50 [µM]
1,"NCCC(=O)NC[C@@H](Cc1ccc(O)c(I)c1)C(=O)N1CCC(NC(=O)c2cc(C3CC3)on2)CC1 [compound 34, (R)-N-(1-(3-(3-aminopropanamido)-2-(4-hydroxy-3-iodobenzyl)propanoyl)piperidin-4-yl)-5-cyclopropylisoxazole-3-carboxamide]",1.64
2,"NCCC(=O)NC[C@H](Cc1ccc(O)c(I)c1)C(=O)N1CCC(NC(=O)c2cc(C3CC3)on2)CC1 [compound 35, (S)-N-(1-(3-(3-aminopropanamido)-2-(4-hydroxy-3-iodobenzyl)propanoyl)piperidin-4-yl)-5-cyclopropylisoxazole-3-carboxamide]",0.117
3,"NCC(=O)NC[C@@H](Cc1ccc(O)c(I)c1)C(=O)N1CCC(NC(=O)c2cc(C3CC3)on2)CC1 [compound 36, (R)-N-(1-(3-(2-aminoacetamido)-2-(4-hydroxy-3-iodobenzyl)propanoyl)piperidin-4-yl)-5-cyclopropylisoxazole-3-carboxamide]",9.41
4,"NCC(=O)NC[C@H](Cc1ccc(O)c(I)c1)C(=O)N1CCC(NC(=O)c2cc(C3CC3)on2)CC1 [compound 37, (S)-N-(1-(3-(2-aminoacetamido)-2-(4-hydroxy-3-iodobenzyl)propanoyl)piperidin-4-yl)-5-cyclopropylisoxazole-3-carboxamide]",0.623
5,"Cc1ccc(C[C@H](CN)C(=O)N2CCC(NC(=O)c3cc(C4CC4)on3)CC2)cc1O [compound 38, (R)-N-(1-(3-amino-2-(3-hydroxy-4-methylbenzyl)propanoyl)piperidin-4-yl)-5-cyclopropylisoxazole-3-carboxamide]",0.518
6,"Cc1ccc(C[C@@H](CN)C(=O)N2CCC(NC(=O)c3cc(C4CC4)on3)CC2)cc1O [compound 39, (S)-N-(1-(3-amino-2-(3-hydroxy-4-methylbenzyl)propanoyl)piperidin-4-yl)-5-cyclopropylisoxazole-3-carboxamide]",14
7,"NCCCN1CCC(NC(=O)c2cc(C3CC3)on2)CC1 [compound 40, N-(1-(3-aminopropyl)piperidin-4-yl)-5-cyclopropylisoxazole-3-carboxamide]",3.16
8,"C[C@@H](N)C(=O)NC[C@@H](Cc1ccc(O)c(I)c1)C(=O)N1CCC(NC(=O)c2cc(C3CC3)on2)CC1 [compound 42, N-(1-((R)-3-((R)-2-aminopropanamido)-2-(4-hydroxy-3-iodobenzyl)propanoyl)piperidin-4-yl)-5-cyclopropylisoxazole-3-carboxamide]",8.39
9,"C[C@@H](N)C(=O)NC[C@H](Cc1ccc(O)c(I)c1)C(=O)N1CCC(NC(=O)c2cc(C3CC3)on2)CC1 [compound 43, N-(1-((S)-3-((R)-2-aminopropanamido)-2-(4-hydroxy-3-iodobenzyl)propanoyl)piperidin-4-yl)-5-cyclopropylisoxazole-3-carboxamide]",1.23
10,"C[C@@H](N)CC(=O)NC[C@@H](Cc1ccc(O)c(I)c1)C(=O)N1CCC(NC(=O)c2cc(C3CC3)on2)CC1 [compound 44, N-(1-((R)-3-((R)-3-aminobutanamido)-2-(4-hydroxy-3-iodobenzyl)propanoyl)piperidin-4-yl)-5-cyclopropylisoxazole-3-carboxamide]",13.8
11,"C[C@@H](N)CC(=O)NC[C@H](Cc1ccc(O)c(I)c1)C(=O)N1CCC(NC(=O)c2cc(C3CC3)on2)CC1 [compound 45, N-(1-((S)-3-((R)-3-aminobutanamido)-2-(4-hydroxy-3-iodobenzyl)propanoyl)piperidin-4-yl)-5-cyclopropylisoxazole-3-carboxamide]",0.479
12,"C[C@H]1CN(C(=O)[C@H](N)Cc2ccc(O)cc2)CCC1NC(=O)c1cc(C2CC2)on1 (stereo partly drawn) [compound 47, N-((3S)-1-(D-tyrosyl)-3-methylpiperidin-4-yl)-5-cyclopropylisoxazole-3-carboxamide]",14.9
13,"C[C@@H]1CN(C(=O)[C@H](N)Cc2ccc(O)cc2)CCC1NC(=O)c1cc(C2CC2)on1 (stereo partly drawn) [compound 48, N-((3R)-1-(D-tyrosyl)-3-methylpiperidin-4-yl)-5-cyclopropylisoxazole-3-carboxamide]",14.9
14,"C[C@H]1CN(C(=O)CN)CCC1NC(=O)c1cc(C2CC2)on1 (stereo partly drawn) [compound 49, 5-cyclopropyl-N-((3S)-1-glycyl-3-methylpiperidin-4-yl)isoxazole-3-carboxamide]",37.2
15,"C[C@@H]1CN(C(=O)CN)CC[C@H]1NC(=O)c1cc(C2CC2)on1 [compound 50, 5-cyclopropyl-N-((3R,4R)-1-glycyl-3-methylpiperidin-4-yl)isoxazole-3-carboxamide]",9.72
16,"C[C@@H]1CN(C(=O)CN)CC[C@@H]1NC(=O)c1cc(C2CC2)on1 [compound 51, 5-cyclopropyl-N-((3R,4S)-1-glycyl-3-methylpiperidin-4-yl)isoxazole-3-carboxamide]",12.7
17,"C[C@H]1CC(NC(=O)c2cc(C3CC3)on2)CCN1C(=O)CN (stereo partly drawn) [compound 52, 5-cyclopropyl-N-((2S)-1-glycyl-2-methylpiperidin-4-yl)isoxazole-3-carboxamide]",32.5
18,"C[C@@H]1C[C@@H](NC(=O)c2cc(C3CC3)on2)CCN1C(=O)CC1CCNCC1 [compound 53, 5-cyclopropyl-N-((2R,4S)-2-methyl-1-(2-(piperidin-4-yl)acetyl)piperidin-4-yl)isoxazole-3-carboxamide]",0.862
19,"C[C@H]1C[C@@H](NC(=O)c2cc(C3CC3)on2)CCN1C(=O)CC1CCNCC1 [compound 54, 5-cyclopropyl-N-((2S,4S)-2-methyl-1-(2-(piperidin-4-yl)acetyl)piperidin-4-yl)isoxazole-3-carboxamide]",2.08
20,"C[C@@H]1C[C@H](NC(=O)c2cc(C3CC3)on2)CCN1C(=O)CC1CCNCC1 [compound 55, 5-cyclopropyl-N-((2R,4R)-2-methyl-1-(2-(piperidin-4-yl)acetyl)piperidin-4-yl)isoxazole-3-carboxamide]",0.681
21,"C[C@@H]1C[C@@H](NC(=O)c2cc(C3CC3)on2)CCN1C(=O)[C@H]1CC[C@H](N)CC1 [compound 58, N-((2R,4S)-1-((1r,4R)-4-aminocyclohexane-1-carbonyl)-2-methylpiperidin-4-yl)-5-cyclopropylisoxazole-3-carboxamide]",1.4
22,"C[C@H]1C[C@@H](NC(=O)c2cc(C3CC3)on2)CCN1C(=O)[C@H]1CC[C@H](N)CC1 [compound 59, N-((2S,4S)-1-((1r,4S)-4-aminocyclohexane-1-carbonyl)-2-methylpiperidin-4-yl)-5-cyclopropylisoxazole-3-carboxamide]",7.97
23,"C[C@H]1C[C@H](NC(=O)c2cc(C3CC3)on2)CCN1C(=O)[C@H]1CC[C@H](N)CC1 [compound 60, N-((2S,4R)-1-((1r,4S)-4-aminocyclohexane-1-carbonyl)-2-methylpiperidin-4-yl)-5-cyclopropylisoxazole-3-carboxamide]",1.41
24,"C[C@H](N)C(=O)NC[C@@H](Cc1ccc(O)c(I)c1)C(=O)N1CCC(NC(=O)c2cc(C3CC3)on2)CC1 [compound 61, N-(1-((R)-3-((S)-2-aminopropanamido)-2-(4-hydroxy-3-iodobenzyl)propanoyl)piperidin-4-yl)-5-cyclopropylisoxazole-3-carboxamide]",15.3
25,"C[C@H](N)C(=O)NC[C@H](Cc1ccc(O)c(I)c1)C(=O)N1CCC(NC(=O)c2cc(C3CC3)on2)CC1 [compound 62, N-(1-((S)-3-((S)-2-aminopropanamido)-2-(4-hydroxy-3-iodobenzyl)propanoyl)piperidin-4-yl)-5-cyclopropylisoxazole-3-carboxamide]",1.33
